Like-named read-outs stand apart in the source and are kept apart here.
Key:
PD-L1 = PD-L1 (Homo sapiens (Human), UniProt Q9NZQ7); experiment: PD-L1/PD-L1 dimerization biochemical protein-protein interaction assay (ALPHA); type: binding; details: read-out: AC50 PDL1 Dimer 1 nM
PD-1/PD-L1 = PD-1/PD-L1 (Homo sapiens (Human), UniProt Q9NZQ7); experiment: PD-1/PD-L1 biochemical protein-protein interaction assay (ALPHA); type: binding; details: read-out: IC50 PD-L1-PD1
[1] = 0.5 nM His tagged PD-L1 and 0.5 nM FLAG tagged PD-L1, Table 4B
[2] = 0.3 nM His tagged PD-L1, 2.5 nM biotinylated Fc-PD-1, Table 3B
[3] = 0.5 nM His tagged PD-L1 and 0.5 nM FLAG tagged PD-L1, Table 4A
[4] = 0.3 nM His tagged PD-L1, 2.5 nM biotinylated Fc-PD-1, readings of 0.064 nM are equal to or less than 0.064 nM

Chain of PD-1/PD-L1 (Q9NZQ7 19-238): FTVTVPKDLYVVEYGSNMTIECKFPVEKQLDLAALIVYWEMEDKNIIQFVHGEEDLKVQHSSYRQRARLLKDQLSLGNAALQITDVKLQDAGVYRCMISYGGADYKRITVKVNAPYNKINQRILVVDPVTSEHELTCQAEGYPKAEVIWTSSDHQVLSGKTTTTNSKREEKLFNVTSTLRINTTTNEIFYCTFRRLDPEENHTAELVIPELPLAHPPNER
Chain of PD-L1 (Q9NZQ7 19-238): as above
Chain of PD-L1 (Q9NZQ7 19-238): as above

Row | SMILES | AC50 (PD-L1; [1]) | IC50 (PD-1/PD-L1; [2]) | AC50 (PD-L1; [3]) | IC50 (PD-1/PD-L1; [4])
1 | COc1nc(-c2cccc(-c3cccc4c3CC[C@@H]4Oc3nc(OC)c(CN4CC5(C(=O)O)CCC4CC5)cc3Cl)c2Cl)ccc1CN[C@H]1CCCC[C@H]1O [B-50] | 26.1 nM | 0.064 nM |  | 
2 | CNC(=O)C1CN(Cc2cc(Cl)c(O[C@H]3CCc4c(-c5cccc(-c6ccc(CNC[C@@H]7CCC(=O)N7)c(OC)n6)c5Cl)cccc43)nc2OC)C1 [B-101] | 64.8 nM | 0.201 nM |  | 
3 | COc1nc(-c2cccc(-c3cccc4c3CC[C@@H]4Nc3nc(OC)c(CN4CC[C@@H](C(=O)O)C4)cc3C(F)(F)F)c2Cl)ccc1CN1CC(C)(O)C1 [A-25] |  |  | 28.1 nM | ≤ 0.064 nM
4 | COc1nc(-c2cccc(-c3cccc4c3CC[C@@H]4Oc3nc(OC)c(CN4CCC(C)(C)C(C(=O)O)C4)cc3Cl)c2Cl)ccc1CNC[C@@H]1CCC(=O)N1 (stereo partly shown) [B-25] | 17.8 nM | 0.064 nM |  | 
5 | COC[C@H](NCc1cc(C(F)(F)F)c(O[C@H]2CCc3c(-c4cccc(-c5ccc(CNC[C@@H]6CCC(=O)N6)c(OC)n5)c4Cl)cccc32)nc1OC)C(=O)O [B-264] | 6.55 nM | 0.064 nM |  | 
6 | COc1cc(O[C@H]2CCc3c(-c4cccc(-c5ccc(CNC[C@@H]6CCC(=O)N6)c(OC)n5)c4Cl)cccc32)c(C(F)(F)F)cc1CN1CC[C@H](C(=O)O)C1 [B-165] | 24.6 nM | 0.064 nM |  | 
7 | COc1nc(-c2cccc(-c3cccc4c3CC[C@@H]4Nc3nc(OC)c(CN[C@@H](C)C(=O)O)cc3C(F)(F)F)c2Cl)ccc1CN[C@H]1C[C@](C)(O)C1 [A-66] |  |  | 19.6 nM | ≤ 0.064 nM
8 | COc1nc(-c2cccc(-c3cccc4c3CC[C@@H]4Nc3nc(OC)c(CN4C5CCC4(C(=O)O)CC5)cc3C(F)(F)F)c2Cl)ccc1CN1CC(C)(O)C1 [A-60] |  |  | 13.9 nM | ≤ 0.064 nM
9 | CC[C@H](NCc1cc(C(F)(F)F)c(O[C@H]2CCc3c(-c4cccc(-c5ccc(CNC[C@@H]6CCC(=O)N6)c(OC)n5)c4Cl)cccc32)nc1OC)C(=O)O [B-269] | 6.13 nM | 0.064 nM |  | 
10 | COc1nc(-c2cccc(-c3cccc4c3CC[C@@H]4Oc3nc(OC)c(CN4CC5CCC(C(=O)O)(C5)C4)cc3Cl)c2Cl)ccc1CNC[C@@H]1CCC(=O)N1 (stereo partly shown) [B-11] | 71.4 nM | 0.066 nM |  | 
11 | COc1cc(-c2cccc(-c3cccc4c3CC[C@@H]4Nc3nc(OC)c(CNC4(C(=O)O)CC4)nc3C(F)(F)F)c2Cl)cc(F)c1CNC[C@@H]1CCC(=O)N1 [A-32] |  |  | 12.5 nM | ≤ 0.064 nM
12 | COc1nc(-c2cccc(-c3cccc4c3CC[C@@H]4Oc3nc(OC)c(CNCCC(=O)O)cc3Cl)c2Cl)ccc1CNC[C@@H]1CCC(=O)N1 [B-27] | 11.2 nM | 0.064 nM |  | 
13 | COc1nc(-c2cccc(-c3cccc4c3CC[C@@H]4Oc3nc(OC4CC4)c(CN4CC[C@@H](C(=O)O)C4)cc3Cl)c2Cl)ccc1CNC[C@@H]1CCC(=O)N1 [B-200] | 20.1 nM | 0.064 nM |  | 
14 | COc1cc(-c2cccc(-c3cccc4c3CC[C@@H]4Oc3nc(OC)c(CN(C)CC(=O)O)cc3C(F)(F)F)c2Cl)cc(F)c1CNC[C@@H]1CCC(=O)N1 [B-187] | 2.86 nM | 0.064 nM |  | 
15 | COc1nc(-c2cccc(-c3cccc4c3SC[C@@H]4Oc3nc(OC)c(CNC[C@@H]4CCC(=O)N4)cc3Cl)c2Cl)ccc1CNC[C@@H]1CCC(=O)N1 [B-103] | 58.5 nM | 0.234 nM |  | 
16 | CNC(=O)CNCc1nc(C(F)(F)F)c(N[C@H]2CCc3c(-c4cccc(-c5ccc(CNC[C@@H]6CCC(=O)N6)c(OC)n5)c4Cl)cccc32)nc1OC [A-88] |  |  | 60.4 nM | 0.202 nM
17 | COc1nc(-c2cccc(-c3cccc4c3CC[C@@H]4Oc3nc(OC)c(CN4CC[C@@H](C(=O)N=S(C)(=O)NCC(F)(F)F)C4)cc3Cl)c2Cl)ccc1CNC[C@@H]1CCC(=O)N1 (stereo partly shown) [B-161] | 41.2 nM | 0.073 nM |  | 
18 | COc1nc(O[C@H]2CCc3c(-c4cccc(-c5cc(C)c(CN6CC(C)(O)C6)c(OC)n5)c4Cl)cccc32)c(Cl)cc1CN1CC[C@H](C(=O)O)C1 [B-60] | 55.6 nM | 0.064 nM |  | 
19 | COc1nc(-c2cccc(-c3cccc4c3CC[C@@H]4Oc3cnc(CN4CC[C@@H](C(=O)O)C4)c(OC)n3)c2Cl)ccc1CNC[C@@H]1CCC(=O)N1 [B-156] | 324 nM | 0.076 nM |  | 

The remaining lines, values ahead:

Row | AC50 (PD-L1; [1]) | IC50 (PD-1/PD-L1; [2]) | AC50 (PD-L1; [3]) | IC50 (PD-1/PD-L1; [4]) | SMILES
20 | 5.33 nM | 0.064 nM |  |  | COc1nc(-c2cccc(-c3cccc4c3CC[C@@H]4Oc3nc(OC)c(CN4CC5CCC4(C(=O)O)CC5)cc3C(F)(F)F)c2Cl)ccc1CN1CC2(CCC(=O)N2)C1 [B-226]
21 | 18.9 nM | 0.064 nM |  |  | COc1nc(-c2cccc(-c3cccc4c3CC[C@@H]4Oc3nc(OC)c(CN[C@H](C)C(=O)O)cc3C)c2Cl)ccc1CNC[C@@H]1CCC(=O)N1 [B-242]
22 | 134 nM | 0.082 nM |  |  | COc1nc(-c2cccc(-c3cccc4c3CC[C@@H]4Oc3nc(OC)c(CN4CC[C@@H](C(=O)N=S(C)(=O)NC(=O)C(F)(F)F)C4)cc3Cl)c2Cl)ccc1CNC[C@@H]1CCC(=O)N1 (stereo partly shown) [B-162]
23 | 156 nM | 0.064 nM |  |  | COc1nc(O[C@H]2CCc3c(-c4cccc(-c5cnc(CNC[C@@H]6CCC(=O)N6)c(OC)n5)c4C#N)cccc32)c(Cl)cc1CN1CC[C@@H](C(=O)O)C1 [B-69]
24 |  |  | 42.5 nM | ≤ 0.064 nM | COc1nc(-c2cccc(-c3cccc4c3CC[C@@H]4Nc3nc(OC)c(CNC4(C(=O)O)CC4)nc3C(F)(F)F)c2Cl)ccc1CNC[C@H]1C[C@](C)(O)C1 [A-85]
25 | 23.5 nM | 0.064 nM |  |  | COc1nc(-c2cccc(-c3cccc4c3CC[C@@H]4Oc3nc(OC)c(CN4CC[C@@](C)(C(=O)O)C4)cc3C(F)(F)F)c2Cl)ccc1CNC[C@H]1C[C@](C)(O)C1 [B-208]
26 | 3.14 nM | 0.064 nM |  |  | COc1nc(-c2cccc(-c3cccc4c3CC[C@@H]4Oc3nc(OC)c(CNC4(C(=O)O)CCC4)cc3C(F)(F)F)c2Cl)ccc1CNC[C@@H]1CCC(=O)N1 [B-229]
27 | 44.3 nM | 0.064 nM |  |  | COc1nc(O[C@H]2CCc3c(-c4cccc(-c5cnc(CNC[C@@H]6CCC(=O)N6)c(OC)n5)c4Cl)cccc32)c(Cl)cc1CN1CC(C(=O)O)C1 [B-43]
28 | 297 nM | 0.41 nM |  |  | COc1nc(-c2cccc(-c3cccc4c3CC[C@@H]4Oc3nc4c(nc3Cl)c(CN3CC5(CNC(=O)C5)C3)nn4C)c2Cl)ccc1CNC[C@@H]1CCC(=O)N1 [B-146]
29 | 2.2 nM | 0.064 nM |  |  | COc1nc(-c2cccc(-c3cccc4c3CC[C@@H]4Oc3nc(OC)c(CNC[C@H]4C[C@H](O)C4)cc3C(F)(F)F)c2Cl)ccc1CNC[C@@H]1CCC(=O)N1 [B-262]
30 |  |  | 11.8 nM | ≤ 0.064 nM | COc1nc(-c2cccc(-c3cccc4c3CC[C@@H]4Nc3nc(OC)c(CN4CCC5CC4(C(=O)O)C5)cc3C(F)(F)F)c2Cl)ccc1CN1CC(C)(O)C1 [A-56]
31 | 10.5 nM | 0.064 nM |  |  | COc1cc(-c2cccc(-c3cccc4c3CC[C@@H]4Oc3nc(OC)c(CN4CC[C@@H](C(=O)O)C4)cc3Cl)c2Cl)cc(F)c1CNC[C@@H]1CCC(=O)N1 [B-131]
32 |  |  | 7.18 nM | ≤ 0.064 nM | COc1nc(-c2cccc(-c3cccc4c3CC[C@@H]4Nc3nc(OC)c(CNCC(=O)O)nc3C(F)(F)F)c2Cl)ccc1CNC[C@@H]1CC(O)C(=O)N1 (stereo partly shown) [A-46]
33 | 20.1 nM | 0.064 nM |  |  | COc1nc(-c2cccc(-c3cccc4c3CC[C@@H]4Oc3nc(OC)c(CN4C[C@@H](C)[C@H](C(=O)O)C4)cc3Cl)c2Cl)ccc1CNC[C@@H]1CCC(=O)N1 [B-107]
34 | 80.6 nM | 0.146 nM |  |  | COc1nc(-c2cccc(-c3cccc4c3CC[C@@H]4Oc3nc(OC)c(CN4CC(C)(O)C4)cc3Cl)c2Cl)ccc1CNC[C@@H]1CCC(=O)N1 [B-102]
35 | 2.28 nM | 0.064 nM |  |  | COc1cc(-c2cccc(-c3cccc4c3CC[C@@H]4Oc3nc(OC)c(CN4CC5(C(=O)O)CCC4CC5)cc3C(F)(F)F)c2Cl)ccc1CNC[C@@H]1CCC(=O)N1 [B-140]
36 | 11.1 nM | 0.064 nM |  |  | COc1nc(-c2cccc(-c3cccc4c3CC[C@@H]4Oc3nc(OC)c(CNC4(C(=O)O)CC4)cc3C(F)(F)F)c2Cl)ccc1CN1CC2(CNC(=O)C2)C1 [B-169]
37 | 9.33 nM | 0.064 nM |  |  | COc1nc(O[C@H]2CCc3c(-c4cccc(-c5ccc(CNC[C@@H]6CCC(=O)N6)c(OCC#N)n5)c4Cl)cccc32)c(Cl)cc1CN1CC[C@@H](C(=O)O)C1 [B-19]
38 | 7.12 nM | 0.064 nM |  |  | COc1nc(-c2cccc(-c3cccc4c3CC[C@@H]4Oc3nc(OCc4cncc(Cl)c4)c(CN4CC5(C(=O)O)CCC4CC5)cc3Cl)c2Cl)ccc1CNC[C@@H]1CCC(=O)N1 [B-48]
39 | 5.79 nM | 0.064 nM |  |  | COc1cc(-c2cccc(-c3cccc4c3CC[C@@H]4Oc3nc(OC)c(CN4CC[C@@H](C(=O)O)C4)cc3C(F)(F)F)c2Cl)cc(F)c1CNC[C@@H]1CCC(=O)N1 [B-195]
40 | 4.94 nM | 0.064 nM |  |  | COc1nc(-c2cccc(-c3cccc4c3CC[C@@H]4Oc3nc(OC)c(CN[C@H]4C[C@](C)(O)C4)cc3C(F)(F)F)c2Cl)ccc1CNC[C@@H]1CCC(=O)N1 [B-263]
41 | 16.5 nM | 0.064 nM |  |  | COc1cc(-c2cccc(-c3cccc4c3CC[C@@H]4Oc3nc(OC)c(CN4CC5(C(=O)O)CCC4CC5)cc3Cl)c2Cl)cc(F)c1CNC[C@@H]1CCC(=O)N1 [B-129]
42 |  |  | 26.4 nM | ≤ 0.064 nM | COc1cc(N[C@H]2CCc3c(-c4cccc(-c5ccc(CNC[C@@H]6CCC(=O)N6)c(OC)n5)c4Cl)cccc32)c(C(F)(F)F)cc1CN1CC2(C(=O)O)CCC1CC2 [A-12]
43 | 46.9 nM | 0.064 nM |  |  | COc1nc(O[C@H]2CCc3c(-c4cccc(-c5cnc(CNC[C@@H]6CCC(=O)N6)c(OC)n5)c4C)cccc32)c(Cl)cc1CN1CC2(C(=O)O)CCC1CC2 [B-80]
44 |  |  | 7.75 nM | ≤ 0.064 nM | COc1nc(-c2cccc(-c3cccc4c3CC[C@@H]4Nc3nc(OC)c(CN4CCC5CC4(C(=O)O)C5)cc3C(F)(F)F)c2Cl)ccc1CNC[C@@H]1CCC(=O)N1 [A-59]
